tested on: ApoB-100-associated lipoproteins; experiment: Inhibition of the release of ApoB-100-associated lipoproteins from HepG2 cells (immunoassay for human LDL); format: cell-based; settings: HepG2 cells; light absorption 450 nm vs solvent control
Experimental: The test for detecting inhibition of the release of ApoB-100-associated lipoproteins from liver cells was carried out in vitro using cultured liver cells, preferably using cells of the human line HepG2. These cells are grown under standard conditions in medium for the culture of eucaryotic cells, preferably in RPMI 1640 using 10% foetal calf serum. HepG2 cells synthesize and secrete into the culture supernatant ApoB-100-associated lipoprotein particles which in principle are synthesized in a similar manner to the VLDL and LDL particles which are to be found in the plasma.
These particles can be detected using an immunoassay for human LDL. This immunoassay is carried out using antibodies which have been induced in the rabbit against human LDL under standard conditions. The anti-LDL antibodies (rabbit anti-LDL-Ab) were purified by affinity chromatography on an immunosorbent using human LDL. These purified rabbit anti-LDL Ab are adsorbed on the surface of plastic. Expediently, this adsorption is carried out on the plastic surface of microtitre plates having 96 wells, preferably on MaxiSorp plates. If ApoB-100-associated particles are present in the supernatant of Hep-G2 cells, these can bind to the insolubilized rabbit anti-LDL Ab, and an immune complex is formed which is bound to the plastic surface. Unbound proteins are removed by washing. The immune complex located on the plastic surface is detected using monoclonal antibodies which have been induced against human LDL according to standard conditions and purified. These antibodies were conjugated with the enzyme peroxidase. Peroxidase converts the colourless substrate TMB into a coloured product in the presence of H2 O2. After acidification of the reaction mixture using H2 SO4, the specific light absorption at 450 mn is determined, which is a measure of the amount of ApoB-100-associated particles which have been secreted into the culture supernatant by the HepG2 cells.
The IC50 value indicates at which substance concentration the light absorption is inhibited by 50% in comparison with the control (solvent control without substance).

IC50 [nM] | SMILES
9 | COc1ccc(Cc2nc3c(c(=O)n(C)c(=O)n3C)n2Cc2ccc(C(C(=O)N[C@@H](CO)c3ccccc3)C3CCCC3)cc2)cc1 (single isomer, unassigned) [Example 202]
5 | COc1cccc(Cc2nc3c(c(=O)n(C)c(=O)n3C)n2Cc2ccc(C(C(=O)N[C@@H](CO)c3ccccc3)C3CCCC3)cc2)c1 (single isomer, unassigned) [Example 199]
86 | Cn1c(=O)c2c(nc(Cc3ccccc3Cl)n2Cc2ccc(C(C(=O)N[C@@H](CO)c3ccccc3)C3CCCC3)cc2)n(C)c1=O (single isomer, unassigned) [Example 190]
24 | Cc1ccc(Cc2nc3c(c(=O)n(C)c(=O)n3C)n2Cc2ccc(C(C(=O)N[C@@H](CO)c3ccccc3)C3CCCC3)cc2)cc1 (single isomer, unassigned) [Example 184]
63 | COc1ccc(Cc2nc3c(c(=O)n(C)c(=O)n3C)n2Cc2ccc(C(C(=O)N[C@@H](CO)c3ccccc3)C3CCCC3)cc2)cc1 (single isomer, unassigned) [Example 203]
16 | Cn1c(=O)c2c(nc(Cc3ccccc3)n2Cc2ccc(C(C(=O)N[C@@H](CO)c3ccccc3)C3CCCC3)cc2)n(C)c1=O (single isomer, unassigned) [Example 170]
24 | COc1cccc(Cc2nc3c(c(=O)n(C)c(=O)n3C)n2Cc2ccc(C(C(=O)N[C@@H](CO)c3ccccc3)C3CCCC3)cc2)c1 (single isomer, unassigned) [Example 200]
135 | Cn1c(=O)c2c(nc(-c3ccccc3)n2Cc2ccc(C(C(=O)N[C@@H](CO)c3ccccc3)C3CCCC3)cc2)n(C)c1=O (single isomer, unassigned) [Example 131]
31 | Cn1c(=O)c2c(nc(Cc3ccccc3Cl)n2Cc2ccc(C(C(=O)N[C@@H](CO)c3ccccc3)C3CCCC3)cc2)n(C)c1=O (single isomer, unassigned) [Example 189]
8 | Cn1c(=O)c2c(nc(Cc3cccc(Cl)c3)n2Cc2ccc(C(C(=O)N[C@@H](CO)c3ccccc3)C3CCCC3)cc2)n(C)c1=O (single isomer, unassigned) [Example 192]
5 | Cn1c(=O)c2c(nc(Cc3ccc(F)cc3)n2Cc2ccc(C(C(=O)N[C@@H](CO)c3ccccc3)C3CCCC3)cc2)n(C)c1=O (single isomer, unassigned) [Example 195]
61 | Cn1c(=O)c2c(nc(Cc3ccc(F)cc3)n2Cc2ccc(C(C(=O)N[C@@H](CO)c3ccccc3)C3CCCC3)cc2)n(C)c1=O (single isomer, unassigned) [Example 196]

The next lines start with the molecule.

SMILES | IC50 [nM]
Cn1c(=O)c2c(ncn2Cc2ccc(C(C(=O)N[C@@H](CO)c3ccccc3)C3CCCC3)cc2)n(C)c1=O (single isomer, unassigned) [Example 115] | 240
Cn1c(=O)c2c(nc(-c3cccs3)n2Cc2ccc(C(C(=O)N[C@@H](CO)c3ccccc3)C3CCCC3)cc2)n(C)c1=O (single isomer, unassigned) [Example 158] | 2

same assay, conditions: Homo sapiens, HepG2, HepG2 cells; light absorption 450 nm vs solvent control

IC50 [nM] | SMILES
14 | Cn1c(=O)c2c(nc(Cc3cccc(Cl)c3)n2Cc2ccc(C(C(=O)N[C@@H](CO)c3ccccc3)C3CCCC3)cc2)n(C)c1=O (some centres unmarked) [Example 191]
43 | COc1ccccc1Cc1nc2c(c(=O)n(C)c(=O)n2C)n1Cc1ccc(C(C(=O)N[C@@H](CO)c2ccccc2)C2CCCC2)cc1 (some centres unmarked) [Example 197]
12 | Cc1ccc(Cc2nc3c(c(=O)n(C)c(=O)n3C)n2Cc2ccc(C(C(=O)N[C@@H](CO)c3ccccc3)C3CCCC3)cc2)cc1 (some centres unmarked) [Example 182]
41 | Cn1c(=O)c2c(nc(Cc3cccs3)n2Cc2ccc(C(C(=O)N[C@@H](CO)c3ccccc3)C3CCCC3)cc2)n(C)c1=O (some centres unmarked) [Example 126]
5 | COc1cccc(Cc2nc3c(c(=O)n(C)c(=O)n3C)n2Cc2ccc(C(C(=O)N[C@@H](CO)c3ccccc3)C3CCCC3)cc2)c1 (some centres unmarked) [Example 198]
40 | Cn1c(=O)c2c(nc(Cc3cccc(O)c3)n2Cc2ccc(C(C(=O)N[C@@H](CO)c3ccccc3)C3CCCC3)cc2)n(C)c1=O (some centres unmarked) [Example 207]
29 | Cn1c(=O)c2c(nc(Cc3ccc(-c4ccccc4)cc3)n2Cc2ccc(C(C(=O)N[C@@H](CO)c3ccccc3)C3CCCC3)cc2)n(C)c1=O (some centres unmarked) [Example 185]
2 | Cn1c(=O)c2c(nc(Cc3ccccc3)n2Cc2ccc(C(C(=O)N[C@@H](CO)c3ccccc3)C3CCCCC3)cc2)n(C)c1=O (some centres unmarked) [Example 171]
16 | Cn1c(=O)c2c(nc(Cc3ccccc3O)n2Cc2ccc(C(C(=O)N[C@@H](CO)c3ccccc3)C3CCCC3)cc2)n(C)c1=O (some centres unmarked) [Example 204]

Continued, molecule first:

SMILES | IC50 [nM]
Cc1cccc(-c2nc3c(c(=O)n(C)c(=O)n3C)n2Cc2ccc(C(C(=O)N[C@@H](CO)c3ccccc3)C3CCCC3)cc2)c1 (some centres unmarked) [Example 133] | 5
Cn1c(=O)c2c(nc(-c3ccccn3)n2Cc2ccc(C(C(=O)N[C@@H](CO)c3ccccc3)C3CCCC3)cc2)n(C)c1=O (some centres unmarked) [Example 151] | 34
Cc1ccc(-c2nc3c(c(=O)n(C)c(=S)n3C)n2Cc2ccc(C(C(=O)N[C@@H](CO)c3ccccc3)C3CCCC3)cc2)cc1 (some centres unmarked) [Example 226] | 11
CCn1c(=O)c2c(nc(-c3ccc(C)cc3)n2Cc2ccc(C(C(=O)N[C@@H](CO)c3ccccc3)C3CCCC3)cc2)n(CC)c1=O (some centres unmarked) [Example 218] | 8
Cn1c(=O)c2c(nc(-c3cccs3)n2Cc2ccc(C(C(=O)N[C@@H](CO)c3ccccc3)C3CCCC3)cc2)n(C)c1=S (some centres unmarked) [Example 225] | 4
Cc1ccc(-c2nc3c(c(=O)n(C)c(=O)n3C)n2Cc2ccc(C(C(=O)N[C@@H](CO)c3ccccc3)C3CCCC3)cc2)s1 (some centres unmarked) [Example 163] | 131
CCn1c(=O)c2c(nc(-c3ccccc3)n2Cc2ccc(C(C(=O)N[C@@H](CO)c3ccccc3)C3CCCC3)cc2)n(CC)c1=O (some centres unmarked) [Example 217] | 11
CCc1nc2c(c(=O)n(C)c(=O)n2C)n1Cc1ccc(C(C(=O)N[C@@H](CO)c2ccccc2)C2CCCC2)cc1 (some centres unmarked) [Example 120] | 28
Cc1nc2c(c(=O)n(C)c(=O)n2C)n1Cc1ccc(C(C(=O)N[C@@H](CO)c2ccccc2)C2CCCC2)cc1 (some centres unmarked) [Example 119] | 11
Cn1c(=O)c2c(ncn2Cc2ccc(C(C(=O)N[C@@H](CO)c3ccccc3)C3CCCC3)cc2)n(C)c1=O (some centres unmarked) [Example 113] | 58
Cc1nc2c(c(=O)n(C)c(=S)n2C)n1Cc1ccc(C(C(=O)N[C@@H](CO)c2ccccc2)C2CCCC2)cc1 (some centres unmarked) [Example 223] | 4
CCc1nc2c(c(=O)n(CC)c(=O)n2CC)n1Cc1ccc(C(C(=O)N[C@@H](CO)c2ccccc2)C2CCCC2)cc1 (some centres unmarked) [Example 215] | 3
CCc1nc2c(c(=O)n(C)c(=S)n2C)n1Cc1ccc(C(C(=O)N[C@@H](CO)c2ccccc2)C2CCCC2)cc1 (some centres unmarked) [Example 224] | 4
Cn1c(=O)c2c(nc(C3CC3)n2Cc2ccc(C(C(=O)N[C@@H](CO)c3ccccc3)C3CCCC3)cc2)n(C)c1=O (some centres unmarked) [Example 121] | 36
Cn1c(=O)c2c(nc(-c3ccc(-c4ccccc4)cc3)n2Cc2ccc(C(C(=O)N[C@@H](CO)c3ccccc3)C3CCCC3)cc2)n(C)c1=O (some centres unmarked) [Example 139] | 90
Cn1c(=O)c2c(nc(-c3cc(Br)cs3)n2Cc2ccc(C(C(=O)N[C@@H](CO)c3ccccc3)C3CCCC3)cc2)n(C)c1=O (some centres unmarked) [Example 164] | 12

tested on: intestinal triglyceride absorption; experiment: Inhibition of intestinal triglyceride absorption in vivo (rats); set-up: species or system male Wistar rats; settings: po, 2 h
Experimental: The substances which are to be investigated for their triglyceride absorption-inhibiting action in vivo are administered orally to male Wistar rats having a body weight of between 170 and 230 g. For this purpose, the animals are divided into groups of 6 animals 18 hours before administration of the substance and the feed is then withdrawn from them. Drinking water is available to the animals ad libitum. The animals of the control groups receive an aqueous tragacanth suspension or a tragacanth suspension which contains olive oil. The tragacanth-olive oil suspension is prepared using an Ultra-Turrax. The substances to be investigated are suspended directly before substance administration in a corresponding tragacanth-olive oil suspension, also using an Ultra-Turrax.
Before stomach tube application, blood is taken from each rat by puncture of the retroorbital venous plexus to determine the basal serum triglyceride content. The tragacanth suspension, the tragacanth-olive oil suspensions without substance (control animals) and the substances suspended in a corresponding tragacanth-olive oil suspension are then administered to the fasting animals using a stomach tube. Further taking of blood for the determination of the postprandial serum triglyceride rise is carried out, as a rule, 1,2 and 3 hours after stomach tube application.
The blood samples are centrifuged and, after recovering the serum, the triglycerides are determined photometrically using an EPOS analyzer 5060 (Eppendorf Geratebau, Netheler & Hinz GmbH, Hamburg). The triglycerides are determined by fully enzymatic means using a commercially available UV test.
The postprandial serum triglyceride increase is determined by subtraction of the triglyceride preliminary value of each animal from its corresponding postprandial triglyceride concentrations (1,2 and 3 hours after administration).
The differences (in mmol/l) at each time 1, 2 and 3 hours) are averaged in the groups, and the average values of the serum triglyceride increase (ΔTG) of the substance-treated animals are compared with the animals which only received the tragacanth-oil suspension.
Likewise, the serum triglyceride course of the control animals which received only tragacanth is calculated. The substance effect at each time (1, 2 or 3 hours) is determined as follows and given in Δ% of the oil-loaded control. [formula]
Effect of 10 mg of test substance/kg of body weight p.o. on the triglyceride increase (Δ%) 2 h after a triglyceride loading in the serum of fasting rats. The serum triglyceride increase of fat-loaded control animals based on the serum triglyceride level of tragacanth control animals corresponds to 100%. n=6 animals per group.
Statistical assessment was carried out using student3 s t test after prior checking of the variances for homogeneity.

SMILES | Absorption ED50 or % inhibition [mg/kg]
Cn1c(=O)c2c(nc(Cc3cccc(Cl)c3)n2Cc2ccc(C(C(=O)N[C@@H](CO)c3ccccc3)C3CCCC3)cc2)n(C)c1=O (some centres unmarked) [Example 191] | > 3
COc1ccccc1Cc1nc2c(c(=O)n(C)c(=O)n2C)n1Cc1ccc(C(C(=O)N[C@@H](CO)c2ccccc2)C2CCCC2)cc1 (some centres unmarked) [Example 197] | 3
Cc1cccc(-c2nc3c(c(=O)n(C)c(=O)n3C)n2Cc2ccc(C(C(=O)N[C@@H](CO)c3ccccc3)C3CCCC3)cc2)c1 (some centres unmarked) [Example 133] | 2
Cn1c(=O)c2c(nc(-c3ccccn3)n2Cc2ccc(C(C(=O)N[C@@H](CO)c3ccccc3)C3CCCC3)cc2)n(C)c1=O (some centres unmarked) [Example 151] | 6
Cc1ccc(Cc2nc3c(c(=O)n(C)c(=O)n3C)n2Cc2ccc(C(C(=O)N[C@@H](CO)c3ccccc3)C3CCCC3)cc2)cc1 (some centres unmarked) [Example 182] | 2

Source: patent US5714494A, “Xanthines in the 7th position with a benzyl acetic acid moiety” (Bayer Aktiengesellschaft, priority 1995, dated 1998)
